Data reported in patent publication US20220031687A1, “SYNERGIC PHARMACEUTICAL COMBINATION OF A LEUKOTRIENE-RECEPTOR ANTAGONIST AND AN INVERSE AGONIST OF HISTAMINE HI” (priority 2018, published 2022).

Columns and labels:
[1] = test system: rat tracheal rings; assay: LTD4-induced contraction of isolated rat tracheal rings; assay type: cell-based
Description: . The thoracic cavity was exposed, the neck was dissected, and the trachea was removed 1 mm above the tracheal bifurcation and 1 mm below the thyroid cartilage. The sample was submerged in cold Krebs-Henseleit solution bubbled with 95% 02 and 5% CO2, and 3 mm-thick rings were cut. Each ring was placed in an isolated organ chamber, with its bottom anchored by means of a stainless-steel hook and another hook connected to a tension transducer. The chamber was then filled with Krebs-Henseleit solution at 36° C. bubbled with 95% 02 and 5% CO2, pH 7.4±0.5. Two washes were performed, and a 1.5 g load was applied to each ring and were left to rest for 60 minutes. […]
(§1) The antagonist's effects to their own agonists were analyzed using dose-response curves of the agonists in tracheal rings incubated with different antagonists' concentrations. […]
(§2) The half maximal effective concentration (EC50) of each dose-response curve of the analyzed agonists was obtained using the sigmoid model, wherein: y=a+(b−a)/(1+10^(logx0-x)*x p)). […]
(§3) Data are presented as mean±standard deviation of 2 rings obtained from each of the tracheas of 5 rats. Data were analyzed with the one-way ANOVA test with a Dunett's post-test. EC50's were determined by means of the sigmoid model and the 40 percent of effects was obtained using a linear regression. The t and T values were determined based on a t-values table.

[2] = test system: rat tracheal rings; assay: Histamine-induced contraction of isolated rat tracheal rings; assay type: cell-based
Description: Male Wistar rats 300-350 g were sacrificed with a phenobarbital sodium overdose given by intraperitoneal route. The thoracic cavity was exposed, the neck was dissected, and the trachea was removed 1 mm above the tracheal bifurcation and 1 mm below the thyroid cartilage. The sample was submerged in cold Krebs-Henseleit solution bubbled with 95% 02 and 5% CO2, and 3 mm-thick rings were cut. Each ring was placed in an isolated organ chamber, with its bottom anchored by means of a stainless-steel hook and another hook connected to a tension transducer. The chamber was then filled with Krebs-Henseleit solution at 36° C. bubbled with 95% 02 and 5% CO2, pH 7.4±0.5. […]
as §1, §2, §3

[3] = cited from earlier work; for bioavailability / time to maximum plasma concentration: oral administration
[4] = cited from earlier work

Compound `CCCCC/C=C\C\C=C/C=C/C=C/[C@@H](SC[C@H](N)C(=O)NCC(=O)O)[C@@H](O)CCCC(=O)O` [LTD4, leukotriene D4] has an EC50 ([1]; cumulative administration, normalised to acetylcholine 0.1 mM = 100%, read-out: EC50 of concentration-dependent contraction of rat tracheal rings) of 42.6 nM.

Work on `NCCc1c[nH]cn1` [histamine, 2-(4-imidazol) ethylamine] yielded an EC50 ([2]; Rattus norvegicus, cumulative administration, normalised to acetylcholine 0.1 mM = 100%, read-out: EC50 of concentration-dependent contraction of rat tracheal rings) of 3540 nM.

For `CN1CCC(=C2c3ccccc3CC(=O)c3sccc32)CC1` [ketotifen, 4,9-Dihydro-4-(1-methyl-4-piperidylidene)-10H-benzo(4,5)cyclohepta[1,2-b]thiophen-10-one], the “blocking of the contraction induced by the highest histamine concentration” value ([2]; 100 μM ketotifen) is listed as 65%, the “excreted in urine as metabolites” value ([3]; first 48 hours) is listed as 60 to 70% and the “excreted unaltered in urine” value ([3]; first 48 hours) is listed as “Approximately 1%”. The “first pass effect of the liver metabolism” value ([3]; glucuronidation and demethylation) was “approximately 50%”, the “long half-life (biphasic elimination)” value ([3]; in vivo) was 21 h and the “short half-life (biphasic elimination)” value ([3]; in vivo) was 3 to 5 h. The therapeutic plasma concentrations ([3]; in vivo) was 1 to 4 µg/mL, the bioavailability [3] was “approximately 50%” and the “time to maximum plasma concentration” value [3] was 2 to 4 h. For the same compound, the fecal excretion ([3]; up to) was 30 to 40% and the plasma protein binding [4] was 75%.

In the case of `CC(C)(O)c1ccccc1CC[C@@H](SCC1(CC(=O)O)CC1)c1cccc(/C=C/c2ccc3ccc(Cl)cc3n2)c1` [montelukast, 1-[[[(1R)-1-[3-[(1E)-2-(7-chloro-2-quinolinyl)ethenyl]phenyl]-3-[2-(1-hydroxy-1-methylethyl)phenyl]propyl]thio]methyl] cyclopropaneacetic acid], the “blocking of the contraction induced by the highest LTD4 concentration” value ([1]; 30 μM montelukast) is given as 75%, the biological half-life ([3]; in vivo) is given as 2.7-5.5 hours and the bioavailability [3] is given as 64%. For the same compound, the “time to maximum plasma concentration” value [3] was 2 to 4 h and the plasma protein binding [4] was 99%.
